Test results: ChEMBL document CHEMBL5715260, “Selectivity Literature for EUbOPEN Chemogenomic Library” (2024)

Experiments:
Design in all cases: recommended concentration 1 uM
[1] = target: Steroidogenic factor 1 (Homo sapiens) (UniProt Q13285); test: Selectivity interaction (Reporter gene assay) EUB0000567a NR5A1
[2] = target: Nuclear receptor subfamily 4immunitygroup A member 1 (Homo sapiens) (UniProt P22736); test: Selectivity interaction (Reporter gene assay) EUB0000567a NR4A1
[3] = target: Nuclear receptor subfamily 2 group E member 1 (Homo sapiens) (UniProt Q9Y466); test: Selectivity interaction (Reporter gene assay) EUB0000567a NR2E1
Sequence of Nuclear receptor subfamily 2 group E member 1 (Homo sapiens) (Q9Y466 whole entry): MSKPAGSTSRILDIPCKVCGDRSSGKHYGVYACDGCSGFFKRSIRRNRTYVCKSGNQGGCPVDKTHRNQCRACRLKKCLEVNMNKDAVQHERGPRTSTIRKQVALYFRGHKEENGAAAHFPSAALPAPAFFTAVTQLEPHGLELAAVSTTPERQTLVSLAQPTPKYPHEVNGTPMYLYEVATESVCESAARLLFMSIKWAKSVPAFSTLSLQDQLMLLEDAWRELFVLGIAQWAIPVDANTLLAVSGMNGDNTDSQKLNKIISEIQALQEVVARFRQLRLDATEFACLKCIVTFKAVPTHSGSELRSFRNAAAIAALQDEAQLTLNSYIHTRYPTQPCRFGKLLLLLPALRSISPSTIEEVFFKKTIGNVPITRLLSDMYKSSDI

[4] = target: T1, Retinoic acid receptor RXR-alpha (Homo sapiens) (UniProt P19793); test: Selectivity interaction (Reporter gene assay) EUB0000567a RXRA
T1 sequence (whole entry): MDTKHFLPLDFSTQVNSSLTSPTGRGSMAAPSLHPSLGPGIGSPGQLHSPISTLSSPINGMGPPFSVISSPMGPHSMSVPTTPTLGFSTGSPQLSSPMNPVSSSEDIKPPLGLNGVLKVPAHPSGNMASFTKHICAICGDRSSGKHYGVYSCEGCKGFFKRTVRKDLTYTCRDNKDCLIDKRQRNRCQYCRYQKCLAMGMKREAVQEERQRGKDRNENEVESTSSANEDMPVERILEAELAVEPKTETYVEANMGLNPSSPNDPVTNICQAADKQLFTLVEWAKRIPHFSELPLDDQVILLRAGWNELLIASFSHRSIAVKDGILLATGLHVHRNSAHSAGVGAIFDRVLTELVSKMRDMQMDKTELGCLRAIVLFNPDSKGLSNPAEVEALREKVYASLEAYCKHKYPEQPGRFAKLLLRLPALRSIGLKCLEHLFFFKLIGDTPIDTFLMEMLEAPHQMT

[5] = target: T2, Hepatocyte nuclear factor 4-alpha (Homo sapiens) (UniProt P41235); test: Selectivity interaction (Reporter gene assay) EUB0000567a HNF4A
T2 sequence (whole entry): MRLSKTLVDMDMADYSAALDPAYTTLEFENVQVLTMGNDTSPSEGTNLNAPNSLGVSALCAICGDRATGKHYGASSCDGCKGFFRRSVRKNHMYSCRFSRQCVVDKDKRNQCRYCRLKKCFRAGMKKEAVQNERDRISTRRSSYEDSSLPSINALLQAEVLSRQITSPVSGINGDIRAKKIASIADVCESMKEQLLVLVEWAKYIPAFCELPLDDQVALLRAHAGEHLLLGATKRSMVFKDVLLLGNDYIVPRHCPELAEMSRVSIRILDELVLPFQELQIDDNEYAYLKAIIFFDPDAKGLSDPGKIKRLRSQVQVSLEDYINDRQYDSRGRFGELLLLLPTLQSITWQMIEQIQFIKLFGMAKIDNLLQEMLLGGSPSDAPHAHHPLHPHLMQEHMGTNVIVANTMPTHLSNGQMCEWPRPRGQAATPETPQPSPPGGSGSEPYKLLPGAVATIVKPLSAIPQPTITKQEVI

[6] = target: T3, Nuclear receptor subfamily 2 group C member 1 (Homo sapiens) (UniProt P13056); test: Selectivity interaction (Reporter gene assay) EUB0000567a NR2C1
T3 sequence (whole entry): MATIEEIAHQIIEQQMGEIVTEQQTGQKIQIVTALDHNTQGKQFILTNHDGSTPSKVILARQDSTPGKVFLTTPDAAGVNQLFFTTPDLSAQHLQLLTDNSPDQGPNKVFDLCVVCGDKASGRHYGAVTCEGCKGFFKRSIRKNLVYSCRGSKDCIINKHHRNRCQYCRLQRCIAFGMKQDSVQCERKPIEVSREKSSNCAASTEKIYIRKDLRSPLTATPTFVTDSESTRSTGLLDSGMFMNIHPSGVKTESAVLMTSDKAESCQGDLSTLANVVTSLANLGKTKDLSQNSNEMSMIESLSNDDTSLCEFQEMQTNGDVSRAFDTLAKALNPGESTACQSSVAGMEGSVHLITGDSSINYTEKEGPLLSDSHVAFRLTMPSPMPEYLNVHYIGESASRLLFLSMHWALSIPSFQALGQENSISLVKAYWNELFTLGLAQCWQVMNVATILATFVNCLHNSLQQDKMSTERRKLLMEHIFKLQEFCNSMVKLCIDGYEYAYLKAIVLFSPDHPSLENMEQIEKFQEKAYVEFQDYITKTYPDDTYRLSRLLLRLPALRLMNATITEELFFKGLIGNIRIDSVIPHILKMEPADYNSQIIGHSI

[7] = target: T4, Alpha trans-inducing protein (Human alphaherpesvirus 1) (UniProt A0A5J6DW59); test: Selectivity interaction (Reporter gene assay) EUB0000567a UL48
T4 sequence (A0A5J6DW59 as listed by the source): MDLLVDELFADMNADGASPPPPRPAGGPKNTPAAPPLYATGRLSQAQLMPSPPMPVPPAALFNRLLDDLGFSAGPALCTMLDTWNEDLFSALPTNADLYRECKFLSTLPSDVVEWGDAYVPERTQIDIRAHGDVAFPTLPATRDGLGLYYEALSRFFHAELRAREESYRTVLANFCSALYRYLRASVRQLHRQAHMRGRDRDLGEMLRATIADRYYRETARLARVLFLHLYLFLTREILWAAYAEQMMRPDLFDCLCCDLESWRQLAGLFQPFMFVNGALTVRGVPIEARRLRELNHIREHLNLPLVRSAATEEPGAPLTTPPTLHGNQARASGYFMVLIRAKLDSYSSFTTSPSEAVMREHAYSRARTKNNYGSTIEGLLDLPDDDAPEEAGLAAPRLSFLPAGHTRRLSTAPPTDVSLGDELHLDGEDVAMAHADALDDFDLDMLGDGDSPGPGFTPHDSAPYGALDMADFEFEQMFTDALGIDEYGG

[8] = target: Steroidogenic factor 1 (Homo sapiens) (UniProt Q13285); test: Selectivity interaction (Reporter gene assay) EUB0000569a NR5A1
[9] = target: Peroxisome proliferator-activated receptor alpha (Homo sapiens) (UniProt Q07869); test: Selectivity interaction (Reporter gene assay) EUB0000569a PPARA; conditions: screened at recom. conc., Selectivity number of off-targets 2.0, Selectivity number of targets 19.0, Source Knowledge inhouse
Sequence of Peroxisome proliferator-activated receptor alpha (Homo sapiens) (Q07869 whole entry): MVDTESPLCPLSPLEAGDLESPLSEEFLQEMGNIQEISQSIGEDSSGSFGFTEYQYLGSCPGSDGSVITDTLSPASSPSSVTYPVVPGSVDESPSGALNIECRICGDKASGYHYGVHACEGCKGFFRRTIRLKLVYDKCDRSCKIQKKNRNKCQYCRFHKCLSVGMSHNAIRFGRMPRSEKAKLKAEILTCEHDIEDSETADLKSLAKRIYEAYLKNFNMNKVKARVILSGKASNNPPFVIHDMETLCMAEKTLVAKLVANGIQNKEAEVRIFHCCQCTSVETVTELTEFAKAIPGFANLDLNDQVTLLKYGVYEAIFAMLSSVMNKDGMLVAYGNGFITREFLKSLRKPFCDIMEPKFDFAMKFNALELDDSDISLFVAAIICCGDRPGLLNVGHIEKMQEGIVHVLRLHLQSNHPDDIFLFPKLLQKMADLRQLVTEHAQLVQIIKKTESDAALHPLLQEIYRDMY

[10] = target: T3, Nuclear receptor subfamily 2 group C member 1 (Homo sapiens); test: Selectivity interaction (Reporter gene assay) EUB0000569a NR2C1
[11] = target: T4, Alpha trans-inducing protein (Human alphaherpesvirus 1); test: Selectivity interaction (Reporter gene assay) EUB0000569a UL48
[12] = target: T2, Hepatocyte nuclear factor 4-alpha (Homo sapiens); test: Selectivity interaction (Reporter gene assay) EUB0000569a HNF4A
[13] = target: Nuclear receptor subfamily 4immunitygroup A member 1 (Homo sapiens) (UniProt P22736); test: Selectivity interaction (Reporter gene assay) EUB0000569a NR4A1
[14] = target: T5, Peroxisome proliferator-activated receptor gamma (Homo sapiens) (UniProt P37231); test: Selectivity interaction (Reporter gene assay) EUB0000569a PPARG; conditions: screened at recom. conc., Selectivity number of off-targets 2.0, Selectivity number of targets 19.0, Source Knowledge inhouse
T5 sequence (whole entry): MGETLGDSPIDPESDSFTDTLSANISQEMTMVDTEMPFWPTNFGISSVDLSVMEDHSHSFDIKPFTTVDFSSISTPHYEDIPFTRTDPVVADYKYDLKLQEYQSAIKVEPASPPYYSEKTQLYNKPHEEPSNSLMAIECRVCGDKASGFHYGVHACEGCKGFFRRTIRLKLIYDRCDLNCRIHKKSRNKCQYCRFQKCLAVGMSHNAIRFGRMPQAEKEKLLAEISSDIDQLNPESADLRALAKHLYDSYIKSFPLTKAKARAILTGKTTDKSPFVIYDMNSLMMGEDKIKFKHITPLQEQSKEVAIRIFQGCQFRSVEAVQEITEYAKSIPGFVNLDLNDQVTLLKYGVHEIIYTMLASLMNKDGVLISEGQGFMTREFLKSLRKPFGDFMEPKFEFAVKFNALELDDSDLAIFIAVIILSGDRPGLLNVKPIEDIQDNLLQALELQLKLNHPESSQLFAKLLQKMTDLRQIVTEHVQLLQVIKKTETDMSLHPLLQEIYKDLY

[15] = target: T1, Retinoic acid receptor RXR-alpha (Homo sapiens); test: Selectivity interaction (Reporter gene assay) EUB0000569a RXRA
[16] = target: Nuclear receptor subfamily 2 group E member 1 (Homo sapiens) (UniProt Q9Y466); test: Selectivity interaction (Reporter gene assay) EUB0000569a NR2E1
[17] = target: T2, Hepatocyte nuclear factor 4-alpha (Homo sapiens); test: Selectivity interaction (Reporter gene assay) EUB0000566a HNF4A
[18] = target: Nuclear receptor subfamily 2 group E member 1 (Homo sapiens) (UniProt Q9Y466); test: Selectivity interaction (Reporter gene assay) EUB0000566a NR2E1
[19] = target: T4, Alpha trans-inducing protein (Human alphaherpesvirus 1); test: Selectivity interaction (Reporter gene assay) EUB0000566a UL48
[20] = target: Steroidogenic factor 1 (Homo sapiens) (UniProt Q13285); test: Selectivity interaction (Reporter gene assay) EUB0000566a NR5A1
[21] = target: T1, Retinoic acid receptor RXR-alpha (Homo sapiens); test: Selectivity interaction (Reporter gene assay) EUB0000566a RXRA
[22] = target: T3, Nuclear receptor subfamily 2 group C member 1 (Homo sapiens); test: Selectivity interaction (Reporter gene assay) EUB0000566a NR2C1
[23] = target: Nuclear receptor subfamily 4immunitygroup A member 1 (Homo sapiens) (UniProt P22736); test: Selectivity interaction (Reporter gene assay) EUB0000566a NR4A1
[24] = target: Retinoic acid receptor beta (Homo sapiens) (UniProt P10826); test: Selectivity interaction (Reporter gene assay) EUB0000565a RARB; conditions: screened at recom. conc., Selectivity number of off-targets 0.0, Selectivity number of targets 19.0, Source Knowledge inhouse
Sequence of Retinoic acid receptor beta (Homo sapiens) (P10826 whole entry): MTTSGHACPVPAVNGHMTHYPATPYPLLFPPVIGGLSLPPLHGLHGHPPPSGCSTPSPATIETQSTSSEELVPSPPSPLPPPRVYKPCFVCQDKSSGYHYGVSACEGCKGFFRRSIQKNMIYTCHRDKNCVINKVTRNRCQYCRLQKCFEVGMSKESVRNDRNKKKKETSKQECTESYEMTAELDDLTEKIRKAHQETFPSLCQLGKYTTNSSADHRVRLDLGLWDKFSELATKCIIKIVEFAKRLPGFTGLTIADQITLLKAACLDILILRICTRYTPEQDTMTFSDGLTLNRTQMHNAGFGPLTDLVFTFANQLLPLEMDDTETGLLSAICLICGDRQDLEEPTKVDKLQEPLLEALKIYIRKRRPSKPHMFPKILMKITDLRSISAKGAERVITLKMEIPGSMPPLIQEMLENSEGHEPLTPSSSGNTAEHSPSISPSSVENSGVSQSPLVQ

[25] = target: Nuclear receptor subfamily 2 group E member 1 (Homo sapiens) (UniProt Q9Y466); test: Selectivity interaction (Reporter gene assay) EUB0000565a NR2E1
[26] = target: T4, Alpha trans-inducing protein (Human alphaherpesvirus 1); test: Selectivity interaction (Reporter gene assay) EUB0000565a UL48
[27] = target: Steroidogenic factor 1 (Homo sapiens) (UniProt Q13285); test: Selectivity interaction (Reporter gene assay) EUB0000565a NR5A1
[28] = target: T1, Retinoic acid receptor RXR-alpha (Homo sapiens); test: Selectivity interaction (Reporter gene assay) EUB0000565a RXRA; conditions: reference bexarotene 1 uM, Selectivity number of off-targets 0.0, Selectivity number of targets 1.0, Source Knowledge inhouse
[29] = target: T3, Nuclear receptor subfamily 2 group C member 1 (Homo sapiens); test: Selectivity interaction (Reporter gene assay) EUB0000565a NR2C1
[30] = target: T2, Hepatocyte nuclear factor 4-alpha (Homo sapiens); test: Selectivity interaction (Reporter gene assay) EUB0000565a HNF4A
[31] = target: Nuclear receptor subfamily 4immunitygroup A member 1 (Homo sapiens) (UniProt P22736); test: Selectivity interaction (Reporter gene assay) EUB0000565a NR4A1
[32] = target: Steroidogenic factor 1 (Homo sapiens) (UniProt Q13285); test: Selectivity interaction (Reporter gene assay) EUB0000564a NR5A1
[33] = target: T4, Alpha trans-inducing protein (Human alphaherpesvirus 1); test: Selectivity interaction (Reporter gene assay) EUB0000564a UL48
[34] = target: T2, Hepatocyte nuclear factor 4-alpha (Homo sapiens); test: Selectivity interaction (Reporter gene assay) EUB0000564a HNF4A
[35] = target: Nuclear receptor subfamily 4immunitygroup A member 1 (Homo sapiens) (UniProt P22736); test: Selectivity interaction (Reporter gene assay) EUB0000564a NR4A1
[36] = target: T1, Retinoic acid receptor RXR-alpha (Homo sapiens); test: Selectivity interaction (Reporter gene assay) EUB0000564a RXRA; conditions: reference bexarotene 1 uM, Selectivity number of off-targets 0.0, Selectivity number of targets 1.0, Source Knowledge inhouse
[37] = target: Nuclear receptor subfamily 2 group E member 1 (Homo sapiens) (UniProt Q9Y466); test: Selectivity interaction (Reporter gene assay) EUB0000564a NR2E1
[38] = target: T3, Nuclear receptor subfamily 2 group C member 1 (Homo sapiens); test: Selectivity interaction (Reporter gene assay) EUB0000564a NR2C1

Sequence of Steroidogenic factor 1 (Homo sapiens) (Q13285 whole entry): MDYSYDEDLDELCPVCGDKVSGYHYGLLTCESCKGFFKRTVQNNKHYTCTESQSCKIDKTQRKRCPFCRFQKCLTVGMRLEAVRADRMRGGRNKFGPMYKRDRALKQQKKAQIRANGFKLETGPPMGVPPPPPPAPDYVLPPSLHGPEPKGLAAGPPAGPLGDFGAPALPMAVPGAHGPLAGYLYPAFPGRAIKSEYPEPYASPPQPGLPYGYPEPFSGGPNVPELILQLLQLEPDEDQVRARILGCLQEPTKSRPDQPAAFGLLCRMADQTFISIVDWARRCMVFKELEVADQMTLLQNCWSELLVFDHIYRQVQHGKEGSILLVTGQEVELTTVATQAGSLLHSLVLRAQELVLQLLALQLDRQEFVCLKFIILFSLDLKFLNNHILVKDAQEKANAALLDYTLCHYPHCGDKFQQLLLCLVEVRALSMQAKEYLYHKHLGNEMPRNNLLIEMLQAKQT
Sequence of Nuclear receptor subfamily 4immunitygroup A member 1 (Homo sapiens) (P22736 whole entry): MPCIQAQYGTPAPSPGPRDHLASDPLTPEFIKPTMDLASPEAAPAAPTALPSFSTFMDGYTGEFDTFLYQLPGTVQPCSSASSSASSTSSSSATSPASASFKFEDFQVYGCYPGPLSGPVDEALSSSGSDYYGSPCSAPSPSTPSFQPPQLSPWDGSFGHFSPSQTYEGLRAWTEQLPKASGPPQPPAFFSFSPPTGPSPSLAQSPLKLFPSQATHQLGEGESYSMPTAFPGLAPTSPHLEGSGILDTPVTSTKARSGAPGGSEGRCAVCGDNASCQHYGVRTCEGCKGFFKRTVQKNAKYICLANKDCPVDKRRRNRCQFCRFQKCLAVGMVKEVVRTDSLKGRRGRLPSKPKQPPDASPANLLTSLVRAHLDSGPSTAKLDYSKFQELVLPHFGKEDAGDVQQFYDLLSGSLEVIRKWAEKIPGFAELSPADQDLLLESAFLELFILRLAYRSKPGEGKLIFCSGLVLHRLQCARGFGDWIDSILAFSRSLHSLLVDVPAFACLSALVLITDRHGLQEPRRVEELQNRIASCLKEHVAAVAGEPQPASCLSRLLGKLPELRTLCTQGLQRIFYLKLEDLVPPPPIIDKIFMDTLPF

## CC1(C)CCC(C)(C)c2cc(C(=O)Nc3ccc(C(=O)O)cc3)ccc21
[1]
  Remaining activity: 0.908
[2]
  Fold activation: 1.04
[3]
  Remaining activity: 0.642
[4]
  Relative activation: 0.898%
[5]
  Fold activation: 1.07
[6]
  Remaining activity: 0.976
[7]
  P-value: 0.0055

## Cc1cc(SCc2sc(-c3ccc(C(F)(F)F)c(F)c3)nc2C)ccc1OCC(=O)O
[8]
  Fold activation: 1.02
[9]
  Fold activation: 14.8
[10]
  Fold activation: 1.31
[11]
  P-value: 0.0031
[12]
  Fold activation: 1.11
[13]
  Fold activation: 1.17
[14]
  Fold activation: 10.5
[15]
  Relative activation: 0.693%
[16]
  Fold activation: 1.36

## CC1(C)CCC(C)(C)c2cc(NC(=O)c3ccc(C(=O)O)cc3)ccc21
[17]
  Fold activation: 0.997
[18]
  Remaining activity: 0.763
[19]
  P-value: 2.26e-06
[20]
  Remaining activity: 0.902
[21]
  Relative activation: 0.52%
[22]
  Remaining activity: 0.903
[23]
  Fold activation: 1.31

## CC1(C)C(=O)C(C)(C)c2cc(C(=O)Nc3ccc(C(=O)O)cc3)ccc21
[24]
  Fold activation: 13.5
[25]
  Remaining activity: 0.923
[26]
  P-value: 0.000922
[27]
  Remaining activity: 0.944
[28]
  Relative activation: 0.48%
[29]
  Fold activation: 1
[30]
  Remaining activity: 0.954
[31]
  Remaining activity: 0.925

## COc1ccc(-c2ccc3cc(C(=O)O)ccc3c2)cc1C12CC3CC(CC(C3)C1)C2
[32]
  Remaining activity: 0.896
[33]
  P-value: 0.00282
[34]
  Fold activation: 1
[35]
  Fold activation: 1.11
[36]
  Relative activation: 0.848%
[37]
  Remaining activity: 0.926
[38]
  Fold activation: 1.03
